Data on seven molecules can be found in PubChem BioAssay (NCI).

Common to all, as to assay: NCI anticancer screen, dose series, 48 h
In test [1] the test system is SK-MEL-28 melanoma.
The test system of test [2] is DU-145 prostate.
In test [3] the test system is A498 renal.
In test [4] the test system is OVCAR-4 ovarian.
Test [5] has as its system HS 578T breast.
Test [6] has as its system A549 NSCLC.
Test [7] deals with K-562 leukemia.
The subject of test [8] is TK-10 renal.
In test [9] the test system is HCC-2998 colon.
The subject of test [10] is PC-3 prostate.

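Grown in 96-well plates, cells were treated for 48 hours with each compound at five concentrations. Insufficient inhibition: endpoint recorded as highest concentration tested. GI50 is the concentration that inhibits growth by half. Definition used: TGI = concentration required for complete inhibition of growth.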 A value given as a limit tells only on which side of the number the result lay.

Take `C#Cc1cccc(Nc2nc(C)nc3cc(NC(=O)CCl)ccc23)c1`: the GI50 in [1] was 3.7 µM; in test [2] it was 3.67 µM; in test [3], 3.65 µM; in test [4], 1.83 µM; in test [5], 2.8 µM; in test [6], 4.68 µM. The GI50 was 0.953 µM in test [7], 3.52 µM in test [8], 3.79 µM in test [9] and 2.53 µM in [10]. In addition, the TGI in test [1] amounted to 7.41 µM; in test [2], 7.08 µM; in test [3], 7.64 µM; in [4] it was 6.05 µM; in test [5], 10.2 µM; in [6], 8.66 µM. Further, the TGI in test [7] was 3.65 µM; in test [8], 6.77 µM; in [9], 7.76 µM; in [10] it was 6.16 µM.

Turning to `COc1ccc(-c2oc3ncnc(N)c3c2-c2ccc(NC(=O)Nc3cc(C(F)(F)F)ccc3F)cc2)cc1`, the GI50 in [1] is 1.94 µM; in [2], 1.14 µM; in test [3], 0.329 µM; in test [4], 1.05 µM; in [5], 0.833 µM; in [6], 0.762 µM. Further, the GI50 is 1.19 µM in test [7], 0.67 µM in test [8], 2.08 µM in [9] and 1.94 µM in [10]. Also, the TGI in [1] is 5.26 µM; in test [2], 4.16 µM; in test [3] it was 2.55 µM; in test [4] it was 8.45 µM; in test [5], 4.67 µM; in test [6] it was 3.43 µM. For the same molecule, the TGI in [7] turned out to be 16.6 µM; in [8], 3.37 µM; in test [9], 5.81 µM; in test [10], 11.4 µM.

Regarding `COc1cc(OCCCN2CCCC2)ccc1Nc1ncc(Cl)c(Nc2ccccc2P(C)(C)=O)n1`, the GI50 was 6.34 µM in test [1]; 1.91 µM in test [2]; 0.175 µM in test [3]; 1.52 µM in [4]; 2.22 µM in [5]; 2.14 µM in test [6]. Besides, the GI50 in test [7] was 4.43 µM; in test [8] it was 0.983 µM; in [9] it was 2.65 µM; in [10], 4.11 µM. The TGI in test [1] was determined as 26.6 µM; in test [2] it was 36.4 µM; in test [3] it was 1.12 µM; in test [4] it was 11.7 µM; in [5] it was 10 µM; in [6], 10.6 µM. The TGI stood at 28.5 µM in [7], 4.91 µM in [8], 25.7 µM in test [9] and 49.6 µM in test [10].

In the case of `N#Cc1ccc2[nH]cc(Cc3c[nH]c4ccc(C#N)cc34)c2c1`, the GI50 is 17.4 µM in test [1]; 16.3 µM in test [2]; 10.1 µM in test [3]; 18.5 µM in test [4]; 11.4 µM in [5]; 9.73 µM in test [6]. For the same molecule, the GI50 in test [7] was 14.7 µM; in test [8], 13.5 µM; in [9] it was 9.77 µM; in test [10], 9.86 µM. Besides, the TGI was greater than 50 µM in test [1]; greater than 50 µM in [2]; 22 µM in [3]; greater than 50 µM in test [4]; 25.7 µM in [5]; 24 µM in test [6]. The TGI is greater than 50 µM in [7], 33.5 µM in [8], 18.6 µM in [9] and 27.8 µM in [10].

As to `C[C@]12CC[C@@H]3c4ccc(O)cc4CC[C@H]3[C@@H]1CC(Cc1ccccc1)(Cc1ccccc1)C2=O`, the GI50 in [1] is 19.8 µM; in test [2], 15.1 µM; in test [3] it was 21.3 µM; in [4], 12.7 µM; in [5] it was 30.9 µM; in test [6], 18.5 µM. Also, the GI50 in test [7] is 16.2 µM; in test [8], 19.9 µM; in test [9], 4.04 µM; in test [10], 4.11 µM. The TGI was 36.9 µM in [1]; 30.5 µM in test [2]; 36.5 µM in test [3]; 27.3 µM in test [4]; greater than 100 µM in test [5]; 48.4 µM in [6]. For the same molecule, the TGI in test [7] was greater than 100 µM; in test [8], 43 µM; in test [9], 14.2 µM; in test [10], 15.5 µM.

For `O=c1cc(-c2ccccc2)oc2c(O)c(O)ccc12`, the GI50 in test [1] is 11.4 µM; in test [2], 8.66 µM; in test [3] it was 21.5 µM; in [4], 3.73 µM; in test [5], 37.2 µM; in test [6], 7.22 µM. For the same molecule, the GI50 is 6.08 µM in test [7], 7.5 µM in test [8], 23.8 µM in test [9] and 7.74 µM in test [10]. Besides, the TGI in test [1] was greater than 100 µM; in [2], greater than 100 µM; in test [3], greater than 100 µM; in test [4], greater than 100 µM; in test [5], greater than 100 µM; in test [6] it was 91.5 µM. Further, the TGI was greater than 100 µM in test [7], 71.1 µM in test [8], greater than 100 µM in test [9] and greater than 100 µM in test [10].

With `COc1ccc2c(c1)C(=O)/C(=C/c1ccc(O)cc1)O2`, the GI50 in [1] is 14.3 µM; in test [2], 9.45 µM; in test [3], 23.2 µM; in test [4], 5.67 µM; in test [5], 28.6 µM; in test [6], 25.7 µM. Moreover, the GI50 was 2.58 µM in [7], 15 µM in test [8], 17.3 µM in [9] and 9.48 µM in test [10]. The TGI in test [1] is 29.6 µM; in test [2], 21.9 µM; in test [3], 49.3 µM; in test [4], 12.7 µM; in [5] it was greater than 86.3 µM; in [6] it was 67.5 µM. In addition, the TGI in [7] was greater than 24.8 µM; in test [8] it was 31 µM; in test [9], 33.6 µM; in test [10] it was 24.7 µM.
